The test system of one series is H3 receptors. Further details: method as in Panayi et al., 2014. The settings on record: rats, mice, monkeys memory paradigms; ref Panayi et al., 2014; cited from earlier work.
The test system of series [1] is acetylcholine extracellular levels. As to the kind of experiment: intracerebral microdialysis, acetylcholine in mPFC and ventral hippocampus. Type of series: in vivo, Wistar (Han) rats. As to conditions: at 30 min. The protocol:
The locomotor activity of the rats was recorded simultaneously during the sampling as a control method to assess a possible contribution of the handling stress and drug administration to microdialysis data.
Male Wistar (Han) rats, weighting about 265 g, were used for the experiment. At their arrival at facility, rats were housed in humidity and temperature controlled room on a 12h light/dark cycle (light on at 6:00 h) with water and food available ad libitum. Rats were anaesthetized with isoflurane and stereotaxically implanted with two guide cannula: one into the ventral hippocampus (vHPC: Interaural + 3.7 mm, Lateral + 4.8 mm, Ventral -3.8 mm providing the final -8.0 mm for the tip of the microdialysis probe) and the second into the medial prefrontal cortex (mPFC: Interaural + 12.2 mm, Lateral - 0.5 mm, Ventral -1.6 mm providing the final -5.6 mm for the tip of the microdialysis probe). After a recovery of 5 days, a microdialysis probe was inserted into the each respective guide cannula of awake rat. The probes were perfused at a constant flow-rate of 1 µl/min with sterile artificial CSF solution in the absence of an AChE inhibitor (148 mM NaCl, 4 mM KCl, 0.8 mM MgCl2, 1.4 CaCl2, 1.2 mM Na2HPO4, 0.3 mM NaH2PO4, pH 7.2). Following 120-min stabilization period, the samples were collected every 30 minutes. The first 3 samples (-90 to 0 min) were taken for determination of basal extracellular levels of ACh. […] After finalizing the experiment, the animals were sacrificed by an overdose of isoflurane and dislocation of the neck.
The levels of ACh in the microdialysates were determined by high-performance liquid chromatography (HPLC) linked to a postcolumn immobilized enzyme reactor followed by electrochemical detection. Briefly, the HPLC system (HTEC-500, Eicom Corp.) included a pulse-free microflow pump, a degasser and an amperometric detector equipped with a platinum electrode. The potential of the working electrode vs. Ag/AgCl ref. electrode was set to +0.45 V vs. an Ag/AgCl reference elctrode. Samples were injected by use of a CMA/200 Refrigerated Microsampler (CMA/Microdialysis). The chromatograms were recorded and integrated by use of a computerized data acquisition system (DataApex, Prague, Czech Republic). ACh was separated on a 150 x 2.0 I.D. mm narrow-bore column, packed with C18 polymer gel, 4 μm particle size. The enzyme reactor AC-ENZYMPAK II (Eicom Corp.) was used. The mobile phase was a 50 mM potassium hydrogen carbonate buffer containing 3.7 mM sodium 1-octanesulfonate, 0.13 mM EDTA-2Na, final pH 7.2. […] Determination of ACh levels in the groups of rats treated with drugs and vehicle was performed in blind conditions.

A further series can be described thus: in vivo. The protocol:
The sampling times are 30 min, 1, 2, 4, and 6 h. In each mouse, two time points of blood sampling were performed. Plasma was extracted from the blood sample by centrifugation (+4°C, 3000 g, 10 min) and stored at -80°C. Then, plasma samples were sent in dry ice to MDS (MDS Pharma Services, Switzerland) for the pharmacokinetic analysis.

A further series has as its system mice. Put plainly: primary observation (IRWIN) test. The settings on record: pharmacological doses, alone or in combination, data not shown. Format: in vivo.
Another series deals with middle-aged mice. Put plainly: contextual serial discrimination (CSD) task, contextual memory. The settings on record: for effect on SCM scores as compared to vehicle: Experiment 1, middle-aged mice, 9 days oral; for strength of contextual memory (SCM) score (% correct responses - % interference responses): Experiment 2, middle-aged mice, NS vs vehicle. Type of series: in vivo, C57/Bl6 mice. An excerpt: The memory task and apparatus has been fully described previously ([Chauveau et al., 2009]). The contextual serial discrimination (CSD) task is based on two successive discriminations in a four-hole board which can be retrieved with the help of specific temporal and contextual cues associated with each of them.
The acquisition phase took place in room A where animals learned two consecutive spatial discriminations (D1 and D2; Figure 1A) which differed by the color and texture of the floor and were separated by a 2-min delay interval. For both D1 and D2, 10 20-mg food pellets were available during the 6-min exploration sessions; for D2 specifically, the baited hole was consistently located in the opposite symmetrical hole. Environmental cues made of colored paper sheets were positioned at 1.00 m above the board. At the end of the acquisition phase, mice returned in the animal’s room for 24 h. Animals retained for the test phase in the present study for both Experiments 1 and 2 have eaten at least 7–8 pellets/10 during both acquisitions.
Mice were replaced on the D1 floor in the board without any pellet in the apparatus and were allowed to freely explore for 6 min during which the number of head-dips in each hole was counted. This allowed measures of the % of “correct responses” (head-dips into the hole previously baited on the same floor-context), the % of “interference responses” (head-dips into the hole previously baited at D2, on the other floor-context) (Figure 1B) and of the “strength” of “contextual memory” score (SCM) (% correct responses - % interference responses). Thus, since correct responses are based on the use of the internal context (color of the floor) and interferent responses are based on the use of spatial allocentric cues previously associated with the other floor, thus the trend of SCM score toward a positive difference represents the gain of internal contextual memory, at the expense of allocentric spatial one.
The two last administrations were delivered 1 h before the acquisition and test phases.
(§1) Independent groups of mice (N = 10 per group) were used. An additional group composed by young vehicle mice (4–5 months young-vehicles, N = 10) was added for determination of the aging effect on both memory and phosphorylated CREB immunoreactivities, as compared to middle-aged Vehicles. For the immunohistochemical study, animals submitted to D1 memory testing were compared to “naïve” mice isolated in the colony room (with N = 5 per group; Naïve condition) and that underwent the food deprivation procedure and drug treatments as behaving animals (Test condition).

The test system of series [2] is phosphorylated CREB (pCREB). Put plainly: pCREB immunohistochemistry after behavioral testing. Format: in vivo, C57/Bl6 mice. As to conditions: test condition. The protocol: as §1
Thirty minutes after completion of the test session, mice were deeply anesthetized (Avertin, 10 mL/kg intraperitoneally i.p.), and perfused transcardially with an ice-cold solution of 4% paraformaldehyde in phosphate buffer (0.1 M, pH 7.4). After perfusion, brains were removed and post-fixed overnight in the same fixative at 4°C. Brains were then put in a sucrose solution (30% in Tris Buffer 0.1 M, pH 7.4) during 24 h. They were then frozen and cut in […] coronal free-floating sections with a freezing microtome (Leica) to proceed to immunochemistry.
Total CREB (tCREB) and phosphorylated CREB (pCREB) immunostainings were performed as described in full previously ([Vandesquille et al., 2013]; [Dominguez et al., 2014], [2016]). Countings were made in the following brain regions according to [Paxinos and Franklin (2001)] atlas: the CA1 of the dorsal (dCA1) and ventral (vCA1) hippocampus, the prelimbic cortex (PL), the dorsal striatum (St), the basolateral amygdala nucleus (BLA) and the medial septum nucleus (MS). Digital images were captured at 10X magnification using an Olympus (BX50) and an imaging analysis system (ImageJ®). At least six serial sections for each brain region were analyzed using a computerized image analysis system (Visiolab 2000®, Biocom, and V4.50). Quantification was expressed as mean number of positive nuclei per mm^2.

The mark [3] stands for this setting: middle-aged mice, Donepezil 0.3 mg/kg (ANOVA factor).

With `NC(=O)c1ccc(OCCCN2CC3CCCC3C2)cc1` (centres unmarked) [S 38093], in the series on H3 receptors, the “mean pharmacological dose with procognitive properties” value is recorded as 0.3 mg/kg. Also, the “maximal increase of ACh levels” value in series [1] (rat mPFC, S 38093 3 mg/kg i.p., n.s.) was 158 % of predrug values; in series [1] (rat mPFC, S 38093 10 mg/kg i.p.), 234 % of predrug values; in series [1] (rat vHPC, S 38093 3 mg/kg i.p.), 153 % of predrug values; in series [1] (rat vHPC, S 38093 10 mg/kg i.p.), 184 % of predrug values. Besides, the AUC in “in vivo” (C57/Bl6, mouse, po, 0.1 mg/kg) was 9.56 ng·h/mL; in “in vivo” (C57/Bl6, mouse, po, 1 mg/kg), 92.4 ng·h/mL. Besides, the Cmax in the series “in vivo” (C57/Bl6, mouse, po, 0.1 mg/kg) worked out at 3.04 ng/mL; in “in vivo” (C57/Bl6, mouse, po, 1 mg/kg) it was 55.6 ng/mL. The molecule also came in with a Tl/2 in the series “in vivo” (C57/Bl6, mouse, po, 1 mg/kg) of 2.37 h. Also, the “plasma exposure when administered as a combination” value in the series “in vivo” (mouse) was “no increase”. The observable clinical signs entry with mice is on record as “did not induce any observable clinical signs”. The “effect on SCM scores as compared to vehicle” value in the series on middle-aged mice (S 38093 0.1 mg/kg alone) and with middle-aged mice (S 38093 1.0 mg/kg alone) was “did not show significant effect” throughout. Moreover, the “strength of contextual memory (SCM) score (% correct responses - % interference responses)” value in the series with middle-aged mice (S 38093 0.1 mg/kg alone) is given as -14.3 ± 5.76; in the series on middle-aged mice (S 38093 0.3 mg/kg alone) it was “+5.19 ± 6.68”. The “effect on pCREB immunopositive cells in the dCA1 and the MS” value in series [2] (middle-aged mice, S 38093 at both doses (0.1 and 0.3 mg/kg)) is “no significant effect”.
In the case of `COc1cc2c(cc1OC)C(=O)C(CC1CCN(Cc3ccccc3)CC1)C2` (centres unmarked) [Donepezil, reference compound], the “maximal increase of ACh levels” value is reported as 175 % of predrug values in series [1] (rat mPFC, Donepezil 0.1 mg/kg i.p.); 216 % of predrug values in series [1] (rat mPFC, Donepezil 0.3 mg/kg i.p.); 180 % of predrug values in series [1] (rat vHPC, Donepezil 0.1 mg/kg i.p.); 207 % of predrug values in series [1] (rat vHPC, Donepezil 0.3 mg/kg i.p.). The “effect on SCM scores as compared to vehicle” value in the series on middle-aged mice (Donepezil alone at all doses (0.1 and 0.3 mg/kg)) is on record as “did not show significant effect”. Further, the “strength of contextual memory (SCM) score (% correct responses - % interference responses)” value in the series with middle-aged mice (Donepezil 0.3 mg/kg alone) is listed as “+7.48 ± 3.60”. Besides, in series [2] (Donepezil alone (0.3 mg/kg) as compared to vehicle), the “increase of pCREB expression in the MS” value was “+174.3%”. Also, in series [2] (setting [3]), the “effect on pCREB immunopositive cells in the MS” value is “significant increase”. For the same molecule, in series [2] (setting [3]), the “effect on pCREB immunopositive cells in the dCA1” value is listed as “significant increase”.

As usually defined, the AUC is the area under the concentration-time curve, a measure of exposure. The low end stands for low exposure, the high end for high exposure. Broadly, the Cmax is the peak of the concentration-time curve.

The values above are taken from publication PMC5177663 (Frontiers in Pharmacology, 2016).
